Measurements published in PubChem BioAssay AID248 (DTP/NCI, 2004).
Where “and” joins values, the source holds several entries; their conditions need not be identical. Identical values can stand only once. Inconclusive results and toxic doses are left out. No stated cut-off is given here; in the data, active means T/C of 150% or more; inactive means T/C below 125%.

Tested on: L1210 leukemia ip in BDF1 mice, survival T/C
Test: NCI In Vivo Anticancer Drug Screen. Data for tumor model L1210 Leukemia (intraperitoneal) in B6D2F1 (BDF1) mice
Conditions: endpoint: mean survival time, higher = longer survival
In short: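 Each compound was tested against a transplantable tumor grown in mice. The endpoint was survival, with treated animals benchmarked against vehicle controls as a simple ratio.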

[1] = dose: 100.0 mg/kg/injection, schedule: Q01DX009 (ip), vehicle: saline with Tween-80
[2] = dose: 200.0 mg/kg/injection, schedule: Q01DX009 (ip), vehicle: saline with Tween-80
[3] = dose: 400.0 mg/kg/injection, schedule: Q01DX009 (ip), vehicle: saline with Tween-80
[4] = dose: 25.0 mg/kg/injection, schedule: Q04DX003 (ip), vehicle: saline
[5] = dose: 50.0 mg/kg/injection, schedule: Q04DX003 (ip), vehicle: saline
[6] = dose: 100.0 mg/kg/injection, schedule: Q04DX003 (ip), vehicle: saline
[7] = dose: 100.0 mg/kg/injection, schedule: Q01DX009 (ip), vehicle: saline
[8] = dose: 200.0 mg/kg/injection, schedule: Q01DX009 (ip), vehicle: saline
[9] = dose: 50.0 mg/kg/injection, schedule: Q01DX009 (ip), vehicle: saline
[10] = dose: 50.0 mg/kg/injection, schedule: Q01DX001 (ip), vehicle: saline
[11] = dose: 100.0 mg/kg/injection, schedule: Q01DX001 (ip), vehicle: saline
[12] = dose: 200.0 mg/kg/injection, schedule: Q01DX001 (ip), vehicle: saline
[13] = dose: 400.0 mg/kg/injection, schedule: Q01DX001 (ip), vehicle: saline
[14] = dose: 50.0 mg/kg/injection, schedule: Q04DX003 (ip), vehicle: saline with Tween-80
[15] = dose: 100.0 mg/kg/injection, schedule: Q04DX003 (ip), vehicle: saline with Tween-80
[16] = dose: 200.0 mg/kg/injection, schedule: Q04DX003 (ip), vehicle: saline with Tween-80
[17] = dose: 400.0 mg/kg/injection, schedule: Q04DX003 (ip), vehicle: saline with Tween-80

Measured: T/C

Cc1ccc(N=Cc2ccccc2O)cc1
inactive: dose: 50.0 mg/kg/injection, schedule: Q01DX001 (ip), vehicle: Klucel (hydroxypropylcellulose) (HPC) 93 % of control | dose: 100.0 mg/kg/injection, schedule: Q01DX001 (ip), vehicle: Klucel (hydroxypropylcellulose) (HPC) 90 % of control | dose: 200.0 mg/kg/injection, schedule: Q01DX001 (ip), vehicle: Klucel (hydroxypropylcellulose) (HPC) 93 % of control

CN(C)/C=C1\NC(=S)NC1=O
inactive: [1] 95 % of control | [2] 95 % of control | [3] 91 % of control

C#CC[As+](c1ccccc1)(c1ccccc1)c1ccccc1
inactive: dose: 6.25 mg/kg/injection, schedule: Q01DX009 (ip), vehicle: Klucel (hydroxypropylcellulose) (HPC) 103 % of control | dose: 12.5 mg/kg/injection, schedule: Q04DX003 (ip), vehicle: Klucel (hydroxypropylcellulose) (HPC) 102 % of control

CS(C)(=O)=C/C(=C\C(=O)c1ccccc1)c1ccccc1
inactive: [4] 100 % of control | [5] 103 % of control | [6] 97 % of control

OC1CCSc2ccc3ccccc3c21 (stereo not given)
inactive: [7] 114 % of control | [8] 104 % of control | dose: 400.0 mg/kg/injection, schedule: Q01DX009 (ip), vehicle: saline 104 % of control

C[N+](C)(Cc1ccc(Cl)cc1)C1c2ccccc2-c2ccccc21
inactive: dose: 6.0 mg/kg/injection, schedule: Q04DX003 (ip), vehicle: saline 93 % of control | dose: 12.0 mg/kg/injection, schedule: Q04DX003 (ip), vehicle: saline 102 % of control | dose: 12.5 mg/kg/injection, schedule: Q01DX009 (ip), vehicle: saline 106 % of control | dose: 25.0 mg/kg/injection, schedule: Q01DX009 (ip), vehicle: saline 101 % of control | [4] 94 % of control and 91 % of control | [9] 98 % of control | [5] 87 % of control

O=C(Cc1ccccc1)OCC1CC2C=CC1C2 (stereo not given)
inactive: dose: 222.0 mg/kg/injection, schedule: Q01DX Z (ip), vehicle: methylcellulose (MC) 102 % of control | dose: 333.0 mg/kg/injection, schedule: Q01DX Z (ip), vehicle: methylcellulose (MC) 93 % of control | dose: 500.0 mg/kg/injection, schedule: Q01DX Z (ip), vehicle: methylcellulose (MC) 93 % of control

CN(C)C(=S)Oc1c(Cl)cc(S(=O)(=O)F)cc1Cl
inactive: dose: 12.5 mg/kg/injection, schedule: Q04DX002 (ip), vehicle: Klucel (hydroxypropylcellulose) (HPC) 98 % of control | dose: 25.0 mg/kg/injection, schedule: Q04DX002 (ip), vehicle: Klucel (hydroxypropylcellulose) (HPC) 105 % of control | dose: 50.0 mg/kg/injection, schedule: Q04DX002 (ip), vehicle: Klucel (hydroxypropylcellulose) (HPC) 109 % of control | dose: 100.0 mg/kg/injection, schedule: Q04DX002 (ip), vehicle: Klucel (hydroxypropylcellulose) (HPC) 94 % of control | dose: 200.0 mg/kg/injection, schedule: Q04DX002 (ip), vehicle: Klucel (hydroxypropylcellulose) (HPC) 100 % of control

COc1cccc(C2N(Cc3ccc(OC)cc3OC)CCCN2Cc2ccc(OC)cc2OC)c1
inactive: [10] 89 % of control | [11] 96 % of control | [12] 91 % of control | [13] 96 % of control

Cc1n(-c2ccccc2)c2ccccc2[n+]1[O-]
inactive: [11] 101 % of control | [12] 101 % of control | [13] 101 % of control

CCCCCCc1cc(N=Nc2ccc(S(=O)(=O)Nc3nccs3)cc2)c(O)cc1O
inactive: dose: 100.0 mg/kg/injection, schedule: Q01DX001 (ip), vehicle: carboxymethylcellulose (CMC) 95 % of control | dose: 200.0 mg/kg/injection, schedule: Q01DX001 (ip), vehicle: carboxymethylcellulose (CMC) 98 % of control | dose: 400.0 mg/kg/injection, schedule: Q01DX001 (ip), vehicle: carboxymethylcellulose (CMC) 95 % of control

CCN(CC)CCCNc1ncnc2c1C(c1ccccc1)c1ccccc1-2 (stereo not given)
inactive: dose: 5.0 mg/kg/injection, schedule: Q01DX001 (ip), vehicle: saline 98 % of control | dose: 10.0 mg/kg/injection, schedule: Q01DX001 (ip), vehicle: saline 96 % of control | dose: 20.0 mg/kg/injection, schedule: Q01DX001 (ip), vehicle: saline 93 % of control | dose: 40.0 mg/kg/injection, schedule: Q01DX001 (ip), vehicle: saline 93 % of control

CCOC(=O)c1c(-c2cc(OC)c(OC)c(OC)c2)csc1N
inactive: [14] 95 % of control | [15] 97 % of control | [16] 87 % of control | [17] 94 % of control

COc1ccc(CN(N=O)c2ccc(C(=O)O)cc2)cc1
inactive: [1] 91 % of control | [15] 110 % of control | [2] 90 % of control | [16] 104 % of control | [17] 105 % of control

CN(C)C=Nc1ccc([N+](=O)[O-])c2ccccc12
inactive: [15] 103 % of control | [16] 106 % of control | [17] 104 % of control

CC(NC(=O)Oc1cccc(NC(=O)N(C)C)c1)C(C)(C)C (stereo not given)
inactive: [1] 109 % of control | [2] 96 % of control | [3] 98 % of control

CC(=O)OC(C1C[C@@]2(C)[C@@H](CC[C@@H]3[C@@H]2CC[C@]2(C)[C@@H](OC(C)=O)CC[C@@H]32)CC1=O)C(F)(F)F (stereo not given in full)
inactive: dose: 50.0 mg/kg/injection, schedule: Q01DX009 (ip), vehicle: carboxymethylcellulose (CMC) 97 % of control | dose: 100.0 mg/kg/injection, schedule: Q01DX009 (ip), vehicle: carboxymethylcellulose (CMC) 89 % of control | dose: 200.0 mg/kg/injection, schedule: Q01DX009 (ip), vehicle: carboxymethylcellulose (CMC) 95 % of control

CP1(=O)CC2OC2C1 (stereo not given)
inactive: [9] 96 % of control | [7] 89 % of control | [8] 93 % of control

NC(=O)N/N=C(/CBr)c1ccc(-c2ccccc2)cc1
inactive: [4] 101 % of control | [5] 95 % of control | [11] 96 % of control | [6] 91 % of control

CCOCN1CCCC1
inactive: dose: 25.0 mg/kg/injection, schedule: Q01DX009 (ip), vehicle: saline with Tween-80 101 % of control | dose: 50.0 mg/kg/injection, schedule: Q01DX009 (ip), vehicle: saline with Tween-80 96 % of control | [14] 91 % of control | dose: 100.0 mg/kg/injection, schedule: Q01DX001 (ip), vehicle: saline with Tween-80 104 % of control | [1] 95 % of control | [15] 103 % of control | dose: 200.0 mg/kg/injection, schedule: Q01DX001 (ip), vehicle: saline with Tween-80 110 % of control

COc1cc(O)c([N+](=O)[O-])cc1OC
inactive: dose: 50.0 mg/kg/injection, schedule: Q04DX003 (ip), vehicle: DMSO 92 % of control | dose: 100.0 mg/kg/injection, schedule: Q04DX003 (ip), vehicle: DMSO 97 % of control | dose: 200.0 mg/kg/injection, schedule: Q04DX003 (ip), vehicle: DMSO 92 % of control

CC(Br)CCON1C(=O)c2ccccc2C1=O (stereo not given)
inactive: [10] 112 % of control | [11] 102 % of control | [12] 96 % of control | [13] 96 % of control

Nc1nc2ccccc2c(Cl)c1Cl
inactive: dose: 50.0 mg/kg/injection, schedule: Q01DX009 (ip), vehicle: Klucel (hydroxypropylcellulose) (HPC) 86 % of control | dose: 100.0 mg/kg/injection, schedule: Q01DX009 (ip), vehicle: Klucel (hydroxypropylcellulose) (HPC) 91 % of control | dose: 200.0 mg/kg/injection, schedule: Q01DX009 (ip), vehicle: Klucel (hydroxypropylcellulose) (HPC) 91 % of control
